From ChEMBL document CHEMBL1146207, “Gypsophin: a novel alpha-glucosidase inhibitory cyclic peptide from the roots of Gypsophila oldhamiana” (Bioorg Med Chem Lett, 2007) come the findings set out here.

In this test the target is Sucrase-isomaltase, intestinal (Homo sapiens, UniProt P14410). Briefly: Inhibition of alpha-glucosidase by enzyme inhibition assay.
Chain of Sucrase-isomaltase, intestinal (P14410 2-1007 limits assumed): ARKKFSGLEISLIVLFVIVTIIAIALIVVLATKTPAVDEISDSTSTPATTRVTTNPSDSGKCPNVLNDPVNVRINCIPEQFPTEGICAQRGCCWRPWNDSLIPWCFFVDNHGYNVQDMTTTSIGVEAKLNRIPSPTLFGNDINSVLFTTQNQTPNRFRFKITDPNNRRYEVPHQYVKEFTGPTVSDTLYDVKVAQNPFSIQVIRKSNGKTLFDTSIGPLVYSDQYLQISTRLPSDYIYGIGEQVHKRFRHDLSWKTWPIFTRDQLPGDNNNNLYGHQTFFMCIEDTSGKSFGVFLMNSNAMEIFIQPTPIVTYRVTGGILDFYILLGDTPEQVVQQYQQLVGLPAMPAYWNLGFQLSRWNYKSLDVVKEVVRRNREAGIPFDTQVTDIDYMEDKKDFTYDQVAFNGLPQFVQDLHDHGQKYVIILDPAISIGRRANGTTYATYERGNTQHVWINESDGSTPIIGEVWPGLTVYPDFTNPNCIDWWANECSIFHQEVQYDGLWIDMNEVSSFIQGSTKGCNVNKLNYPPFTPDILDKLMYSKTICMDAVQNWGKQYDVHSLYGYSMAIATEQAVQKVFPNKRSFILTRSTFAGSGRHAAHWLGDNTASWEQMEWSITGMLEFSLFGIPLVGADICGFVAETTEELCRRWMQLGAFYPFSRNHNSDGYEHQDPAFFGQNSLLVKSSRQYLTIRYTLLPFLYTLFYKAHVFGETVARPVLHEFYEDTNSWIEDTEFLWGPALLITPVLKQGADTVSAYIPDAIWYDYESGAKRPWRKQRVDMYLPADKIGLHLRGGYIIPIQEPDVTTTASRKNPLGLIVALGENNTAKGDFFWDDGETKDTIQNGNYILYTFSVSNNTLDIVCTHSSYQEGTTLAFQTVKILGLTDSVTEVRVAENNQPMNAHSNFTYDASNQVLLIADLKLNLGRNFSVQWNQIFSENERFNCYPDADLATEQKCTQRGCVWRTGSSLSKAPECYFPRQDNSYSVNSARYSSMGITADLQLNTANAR
Chain of Sucrase-isomaltase, intestinal (P14410 1008-1827 limits assumed): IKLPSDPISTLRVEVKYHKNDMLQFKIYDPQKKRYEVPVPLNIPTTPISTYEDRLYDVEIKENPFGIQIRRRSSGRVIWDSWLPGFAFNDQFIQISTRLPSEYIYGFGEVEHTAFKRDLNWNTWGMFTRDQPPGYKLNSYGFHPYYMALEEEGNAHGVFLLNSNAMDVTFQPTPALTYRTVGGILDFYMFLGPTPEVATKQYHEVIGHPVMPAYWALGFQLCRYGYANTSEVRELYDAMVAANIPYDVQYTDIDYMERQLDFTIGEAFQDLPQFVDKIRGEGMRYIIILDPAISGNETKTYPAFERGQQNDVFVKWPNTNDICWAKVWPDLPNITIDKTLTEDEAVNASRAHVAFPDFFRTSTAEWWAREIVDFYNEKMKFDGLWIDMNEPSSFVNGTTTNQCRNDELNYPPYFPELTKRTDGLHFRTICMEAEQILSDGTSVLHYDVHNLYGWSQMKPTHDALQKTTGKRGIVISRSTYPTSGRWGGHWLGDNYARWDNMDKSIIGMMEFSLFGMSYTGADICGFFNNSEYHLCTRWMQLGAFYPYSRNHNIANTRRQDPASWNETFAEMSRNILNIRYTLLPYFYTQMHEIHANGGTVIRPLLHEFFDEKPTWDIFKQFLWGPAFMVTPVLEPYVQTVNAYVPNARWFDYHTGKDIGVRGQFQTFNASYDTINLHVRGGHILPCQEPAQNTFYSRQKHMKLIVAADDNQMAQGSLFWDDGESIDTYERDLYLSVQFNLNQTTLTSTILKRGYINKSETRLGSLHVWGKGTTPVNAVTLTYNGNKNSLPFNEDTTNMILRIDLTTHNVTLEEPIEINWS

As for `CC[C@H](C)[C@@H]1NC(=O)[C@H](Cc2ccccc2)N2C(=O)C[C@H](NC(=O)[C@H](Cc3ccccc3)NC(=O)CNC(=O)[C@@H]3CCCN3C(=O)[C@H](CC(C)C)NC1=O)C2=O` [GYPSOPHIN], 305 µM corresponded to half-maximal inhibition (IC50).
